Test results as given in US20200017495A1, “NOVEL HETEROCYCLIC COMPOUNDS AND THEIR USE IN PREVENTING OR TREATING BACTERIAL INFECTIONS” (priority 2017, published 2020).

What was measured:
Test in all cases: MIC of compounds alone and combined with antibacterials, broth microdilution (CLSI)
Format in all cases: cell-based
[1] = tested on: Enterobacter aerogenes (EAE) isolates
Summary of the method: (§1)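 Antibacterial MICs in combination were determined at every compound concentration tested, alongside compound MICs alone. Bacteria grew in cation-adjusted Mueller-Hinton broth starting from 5.10^5 CFU/mL, incubated at 35° C for 16-20 h, and endpoints were the lowest concentrations with no visible growth.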

[2] = tested on: Morganella morganii (MMO) isolates
Summary of the method: as §1

[3] = tested on: Escherichia coli (ECO) isolates
Summary of the method: as §1

[4] = tested on: Citrobacter koseri (CKR) isolates
Summary of the method: as §1

[5] = tested on: Enterobacter cloacae (ECL) isolates
Summary of the method: as §1

Structure (SMILES): CO/N=C(\C(=O)N[C@@H]1C(=O)N2C(C(=O)O)=C(COC(N)=O)CS[C@H]12)c1ccco1 [FUR, Cefuroxime]
- MIC ([1]; strain EAE 49469, genotype AmpC): >128 µg/mL
- MIC ([1]; strain EAE 200261, genotype TEM-x, AmpC): >256 µg/mL
- MIC ([1]; strain EAE UFR199, genotype TEM-1b, SHV-12, KPC-2, OXA-9): >256 µg/mL
- MIC ([1]; strain EAE UFR201, genotype TEM-1, SHV-12, CTX-M-15): >256 µg/mL
- MIC ([1]; strain EAE UFR202, genotype TEM-24): >256 µg/mL
- MIC ([1]; strain EAE UFR213, genotype TEM-24): >256 µg/mL
- MIC ([2]; strain MMO 200321, genotype TEM-1, CTX-M-15, OXA-1): >256 µg/mL
- MIC ([2]; strain MMO UFR144, genotype TEM-1, CTX-M-15): >256 µg/mL
- MIC ([2]; strain MMO UFR240, genotype CTX-M-9): >256 µg/mL
- MIC ([2]; strain MMO UFR241, genotype TEM-1, CTX-M-15): >256 µg/mL
- MIC ([2]; strain MMO UFR242, genotype TEM-52): >256 µg/mL
- MIC ([2]; strain MMO UFR243, genotype DHA-1): 128 µg/mL
- MIC ([2]; strain MMO UFR244, genotype DHA-1): 64 µg/mL
- MIC ([2]; strain MMO UFR245, genotype DHA-1): 128 µg/mL
- MIC ([2]; strain MMO UFR246, genotype DHA-1): 128 µg/mL
- MIC ([2]; strain MMO UFR247, genotype DHA-1): >256 µg/mL
- MIC ([3]; strain ECO 4133, genotype TEM-30, OXA-1): 16 µg/mL
- MIC ([3]; strain ECO 5302, genotype TEM-1, OXA-1): 32 µg/mL
- MIC ([3]; strain ECO 131119, genotype TEM-1, OXA-48): 8 µg/mL
- MIC ([3]; strain ECO 180070, genotype TEM-1, CTX-M-15): >256 µg/mL
- MIC ([3]; strain ECO 190314, genotype CTX-M-1): >256 µg/mL
- MIC ([3]; strain ECO 190317, genotype TEM-1, SHV-12, CTX-M-15, OXA-1): >512 µg/mL
- MIC ([3]; strain ECO 190457, genotype CTX-M-15, OXA-1): >256 µg/mL
- MIC ([3]; strain ECO 190549, genotype CTX-M-1): >256 µg/mL
- MIC ([3]; strain ECO 200159, genotype TEM-1, CTX-M-14): >256 µg/mL
- MIC ([3]; strain ECO 200259, genotype CTX-M-14): >256 µg/mL
- MIC ([3]; strain ECO 200344, genotype CTX-M-1): >256 µg/mL
- MIC ([3]; strain ECO 260096, genotype CTX-M-132): >256 µg/mL
- MIC ([3]; strain ECO 260304, genotype CTX-M-15): >256 µg/mL
- MIC ([3]; strain ECO 260508, genotype TEM-1, CTX-M-15, OXA-1): >256 µg/mL
- MIC ([3]; strain ECO RGN238, genotype OXA-1): 16 µg/mL
- MIC ([3]; strain ECO UFR15, genotype TEM-1, OXA-48): 16 µg/mL
- MIC ([3]; strain ECO UFR16, genotype TEM-1, CTX-M-15, OXA-1, OXA-48): >256 µg/mL
- MIC ([3]; strain ECO UFR17, genotype TEM-1, CTX-M-15, CMY-2, OXA-1, OXA-181): >256 µg/mL
- MIC ([3]; strain ECO UFR18, genotype CTX-M-15, OXA-204): >256 µg/mL
- MIC ([3]; strain ECO UFR19, genotype CTX-M-15, CMY-2, OXA-1, OXA-204): >256 µg/mL
- MIC ([3]; strain ECO UFR20, genotype SHV-1, CTX-M-15, OXA-1, OXA-232): >256 µg/mL
- MIC ([3]; strain ECO UFR39, genotype CTX-M-15, NDM-1): >256 µg/mL
- MIC ([3]; strain ECO UFR61O, genotype TEM-1, KPC-2): >256 µg/mL
- MIC ([3]; strain ECO UFR62, genotype TEM-1, CTX-M-9, KPC-2): >256 µg/mL
- MIC ([3]; strain ECO UFR74, genotype SHV-1, DHA-1): >256 µg/mL
- MIC ([3]; strain ECO UFR86, genotype ompC-, ompF-): 64 µg/mL
- MIC ([3]; strain ECO UFR174, genotype TEM-1, KPC-2, OXA-1): >256 µg/mL
- MIC ([3]; strain ECO UFR175, genotype TEM-1, KPC-2, OXA-9): >256 µg/mL
- MIC ([3]; strain ECO UFR176, genotype KPC-3, OXA-9*): >256 µg/mL
- MIC ([3]; strain ECO UFR184, genotype CTX-M-15, CMY-4, OXA-1, OXA-204): >256 µg/mL
- MIC ([3]; strain ECO UFR185, genotype OXA-48): >256 µg/mL
- MIC ([3]; strain ECO UFR186, genotype TEM-1, CTX-M-14, OXA-48): >256 µg/mL
- MIC ([3]; strain ECO UFR187, genotype CTX-M-15, OXA-48): >256 µg/mL
- MIC ([3]; strain ECO UFR189, genotype TEM-1, CTX-M-15, OXA-48): >256 µg/mL
- MIC ([3]; strain ECO UFR190, genotype CTX-M-24, OXA-48): >256 µg/mL
- MIC ([3]; strain ECO UFR191, genotype TEM-1, CTX-M-24, OXA-48): >256 µg/mL
- MIC ([3]; strain ECO UFR207, genotype CTX-M-15): >256 µg/mL
- MIC ([3]; strain ECO UFR208, genotype SHV-12): >256 µg/mL
- MIC ([3]; strain ECO UFR209, genotype TEM-1, CTX-M-15): >256 µg/mL
- MIC ([3]; strain ECO UFR210, genotype SHV-12): >256 µg/mL
- MIC ([3]; strain ECO UFR211, genotype TEM-24): 64 µg/mL
- MIC ([3]; strain ECO UFR212, genotype CMY-2): >256 µg/mL
- MIC ([3]; strain ECO UFR218, genotype TEM-1, SHV-1, CTX-M-15): >256 µg/mL
- MIC ([4]; strain CKO ROU, genotype TEM-1, SHV-12, CTX-M-15, OXA-1, OXA-48): 64 µg/mL
- MIC ([4]; strain CKO UFR149, genotype OXA-48): >256 µg/mL
- MIC ([4]; strain CKO UFR150, genotype TEM-1, OXA-48): 64 µg/mL
- MIC ([5]; strain ECL 2185D, genotype OXA-163): >256 µg/mL
- MIC ([5]; strain ECL 190310, genotype AmpC): >256 µg/mL
- MIC ([5]; strain ECL 190408, genotype TEM-1, CTX-M-15, OXA-1): >256 µg/mL
- MIC ([5]; strain ECL 200138, genotype AmpC): >256 µg/mL
- MIC ([5]; strain ECL 200322, genotype TEM-1, CTX-M-15, OXA-1): >256 µg/mL
- MIC ([5]; strain ECL 260033, genotype AmpC): >256 µg/mL
- MIC ([5]; strain ECL 260253, genotype TEM-1, KPC-3): >256 µg/mL
- MIC ([5]; strain ECL 260323, genotype AmpC): >256 µg/mL
- MIC ([5]; strain ECL 260508, genotype TEM-1, CTX-M-15): >256 µg/mL
- MIC ([5]; strain ECL NEM146383, genotype AmpC): >256 µg/mL
- MIC ([5]; strain ECL P99, genotype AmpC): >512 µg/mL
- MIC ([5]; strain ECL UFR12, genotype CTX-M-9, OXA-48): >256 µg/mL
- MIC ([5]; strain ECL UFR13, genotype TEM-1, SHV-12, CTX-M-9, OXA-48): >256 µg/mL
- MIC ([5]; strain ECL UFR14, genotype TEM-1, SHV-12, CTX-M-15, DHA-1, OXA-1, OXA-48): >256 µg/mL
- MIC ([5]; strain ECL UFR60, genotype TEM-1, CTX-M-15, KPC-2): >256 µg/mL
- MIC ([5]; strain ECL UFR70, genotype TEM-1, CTX-M-15, CMY-2, OXA-1, Porin loss): >256 µg/mL
- MIC ([5]; strain ECL UFR84, genotype TEM-1, AmpC, OXA-1): >256 µg/mL
- MIC ([5]; strain ECL UFR85, genotype TEM-1, CTX-M-15, AmpC): >256 µg/mL
- MIC ([5]; strain ECL UFR194, genotype OXA-48): 32 µg/mL
- MIC ([5]; strain ECL UFR195, genotype TEM-1, CTX-M-15, OXA-1, OXA-48): >256 µg/mL
- MIC ([5]; strain ECL UFR196, genotype TEM-1, CTX-M-15, OXA-1, OXA-48): >256 µg/mL
- MIC ([5]; strain ECL UFR197, genotype TEM-1, CTX-M-15, OXA-1, OXA-48): >256 µg/mL
- MIC ([5]; strain ECL UFR198, genotype TEM-1, SHV-12, CTX-M-15, DHA-1, OXA-1, OXA-48): >256 µg/mL
- MIC ([5]; strain ECL UFR200, genotype TEM-1, SHV-12, KPC-2): >256 µg/mL
